Experimental data from patent publication US20250074871A1, “PHENETHYLAMINES AND METHODS OF PREPARATION THEREOF” (priority 2022, published 2025).
Like-named read-outs stand apart in the source and are kept apart here.

What was measured:
Format in all cases: cell-based
[1] = target: T1, 5-HT2A receptor (Homo sapiens, UniProt P28223); assay: 5-HT2A Gq dissociation BRET functional assay; conditions: Table 2; for 5-HT2A BRET Eff %: normalized to % 5-HT stimulation; for EC50: at least three replicate trials
T1 construct: expressed in transfected cells; host or cells: HEK293T

[2] = target: T2, 5-HT2B receptor (Homo sapiens, UniProt P41595); assay: 5-HT2B Gq dissociation BRET functional assay; conditions: Table 2; for EC50: at least three replicate trials; for 5-HT2B BRET Eff %: normalized to % 5-HT stimulation
T2 construct: expressed in transfected cells; host or cells: HEK293T

[3] = target: T3, 5-HT2C receptor (Homo sapiens, UniProt P28335); assay: cell-based; conditions: Table 2; for EC50: at least three replicate trials, read-out: 5-HT2C BRET EC50; for 5-HT2C BRET Eff %: normalized to % 5-HT stimulation
T3 construct: expressed in transfected cells; host or cells: HEK293T
T3 sequence (P28335 33-458): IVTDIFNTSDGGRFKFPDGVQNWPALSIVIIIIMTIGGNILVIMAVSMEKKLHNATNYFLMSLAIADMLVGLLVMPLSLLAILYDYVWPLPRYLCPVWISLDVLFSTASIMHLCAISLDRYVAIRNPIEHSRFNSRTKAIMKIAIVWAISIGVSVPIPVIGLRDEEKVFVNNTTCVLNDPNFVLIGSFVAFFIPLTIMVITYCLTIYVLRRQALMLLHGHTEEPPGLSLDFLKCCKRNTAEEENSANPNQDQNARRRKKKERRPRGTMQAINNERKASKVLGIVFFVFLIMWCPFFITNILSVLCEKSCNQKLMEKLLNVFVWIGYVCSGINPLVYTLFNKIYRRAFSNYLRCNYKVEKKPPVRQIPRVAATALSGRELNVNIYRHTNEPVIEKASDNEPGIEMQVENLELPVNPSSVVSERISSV

T1 sequence (P28223 whole entry): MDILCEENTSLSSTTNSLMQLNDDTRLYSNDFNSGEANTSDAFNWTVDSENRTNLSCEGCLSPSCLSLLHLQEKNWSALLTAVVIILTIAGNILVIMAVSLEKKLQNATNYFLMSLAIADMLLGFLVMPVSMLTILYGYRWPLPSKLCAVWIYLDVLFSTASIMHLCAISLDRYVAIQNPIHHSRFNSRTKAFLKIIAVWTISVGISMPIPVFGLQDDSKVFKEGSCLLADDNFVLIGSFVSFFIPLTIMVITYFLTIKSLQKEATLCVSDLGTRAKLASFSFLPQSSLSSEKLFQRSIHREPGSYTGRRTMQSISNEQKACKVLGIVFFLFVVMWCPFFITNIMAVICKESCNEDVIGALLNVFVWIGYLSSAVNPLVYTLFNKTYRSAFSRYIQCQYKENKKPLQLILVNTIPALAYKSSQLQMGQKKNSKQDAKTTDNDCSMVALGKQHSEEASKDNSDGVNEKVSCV
T2 sequence (P41595 whole entry): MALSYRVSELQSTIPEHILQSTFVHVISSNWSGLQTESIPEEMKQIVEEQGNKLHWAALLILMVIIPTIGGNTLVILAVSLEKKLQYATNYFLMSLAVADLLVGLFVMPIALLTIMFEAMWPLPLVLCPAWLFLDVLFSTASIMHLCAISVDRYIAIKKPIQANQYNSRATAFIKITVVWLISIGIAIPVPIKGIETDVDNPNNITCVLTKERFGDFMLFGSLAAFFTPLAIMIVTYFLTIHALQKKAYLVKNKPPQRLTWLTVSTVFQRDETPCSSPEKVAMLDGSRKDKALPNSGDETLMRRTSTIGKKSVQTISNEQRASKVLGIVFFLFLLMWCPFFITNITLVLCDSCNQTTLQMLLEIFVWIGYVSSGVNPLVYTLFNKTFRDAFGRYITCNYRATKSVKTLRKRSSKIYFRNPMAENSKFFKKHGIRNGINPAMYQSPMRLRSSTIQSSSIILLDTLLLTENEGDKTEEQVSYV

Row | Compound | 5-HT2A BRET Eff % [1] [%] | EC50 ([1]; 5-HT2A BRET EC50 (nM)) [nM] | EC50 ([2]; 5-HT2B BRET EC50 (nM)) [nM] | 5-HT2B BRET Eff % [2] [%] | EC50 [3] [nM] | 5-HT2C BRET Eff % [3] [%] | 5-HT2B BRET EC50 (nM) / Eff % [2] | EC50 ([1]; read-out: 5-HT2A BRET EC50) [nM] | EC50 ([2]; read-out: 5-HT2B BRET EC50) [nM] | 5-HT2C BRET EC50 (nM) / Eff % (merged cell, word) [3]
1 | NCCc1c[nH]c2ccc(O)cc12 [5-hydroxytryptamine (serotonin), 5-hydroxytryptamine, reference compound] | 100 |  |  |  |  |  |  |  |  | 
2 | COc1cc(C#N)c(F)cc1CCNCc1ccccc1O [Cpd #4] | 99 | 2.4 | 4090 | 73 | 37.5 | 115 |  |  |  | 
3 | COc1cc(C#N)ccc1CCNCc1ccccc1F [Cpd #6] | 81 | 381 |  |  | 2120 | 130 | Inactive |  |  | 
4 | COc1cc(C#N)ccc1CCNCc1cccc(F)c1 [Cpd #7] | 84 | 133 |  |  | 800 | 126 | Inactive |  |  | 
5 | COc1cc(C#N)ccc1CCNCc1ccc(F)cc1 [Cpd #8] | 52 | 13100 |  |  | 8740 | 79 | Inactive |  |  | 
6 | COc1cc(C#N)ccc1CCNCc1cccc(Cl)c1 [Cpd #13] | 69 | 393 |  |  | 1840 | 96 | Inactive |  |  | 
7 | COc1cc(C#N)ccc1CCNCc1ccc(Cl)cc1 [Cpd #14] | 40 | 14300 |  |  | 13300 | 74 | Inactive |  |  | 
8 | COc1ccc(CNCCc2ccc(C#N)cc2OC)cc1 [Cpd #29] | 59 | 3950 |  |  | 924 | 75 | Inactive |  |  | 
9 | COc1cc(C#N)ccc1CCNC1COc2ccccc21 (centres unmarked) [Cpd #52] | 69 |  |  |  | 12100 | 125 | Inactive | 1040 |  | 
10 | COc1cc(C#N)ccc1CCNCc1c(Cl)cccc1Cl [Cpd #58] | 79 | 496 |  |  | 2170 | 85 | Inactive |  |  | 
11 | COc1cc(C#N)ccc1CCNCc1ccc(F)cc1F [Cpd #59] | 58 | 14100 |  |  | 9930 | 94 | Inactive |  |  | 
12 | N#Cc1ccc(CCNCc2cccc3ccsc23)c(O)c1 [Cpd #70] | 11 |  |  |  | 5400 | 160 | Inactive | 0.3 |  | 
13 | N#Cc1ccc(CCNCc2cccc3cc[nH]c23)c(O)c1 [Cpd #71] | 59 |  |  |  | 10700 | 92 | Inactive | 1140 |  | 
14 | COc1cc(C#N)ccc1CCNCc1cccc2ncn(C)c12 [Cpd #73] | 4 |  |  |  | 0.04 | 7 | Inactive | 73 |  | 
15 | COc1cc(C#N)ccc1CCN(C)Cc1ccccc1Cl [Cpd #88] | 14 | 0.01 | 4980 | 20 | 310000 | 86 |  |  |  | 
16 | COc1ccc(CCNCc2ccccc2O)c(OC)c1 [Cpd #96, reference compound] | 95 | 2.3 |  |  | 7.2 | 109 | Inactive |  |  | 
17 | COc1cc(-c2cnoc2)ccc1CCNCc1ccccc1Cl [Cpd #101] | 65 |  |  |  | 9520 | 116 | Inactive | 270 |  | 
18 | COc1cc(-c2ncco2)ccc1CCNCc1ccccc1Cl [Cpd #102] | 61 |  |  | 143 | 1640 | 101 |  | 2090 | 5370 | 
19 | COc1cc(-c2ncccn2)ccc1CCNCc1ccccc1Cl [Cpd #104] | 71 |  |  |  | 5690 | 106 | Inactive | 4890 |  | 
20 | COc1cc(-c2cncnc2)ccc1CCNCc1ccccc1Cl [Cpd #105] | 86 |  |  |  | 1490 | 107 | Inactive | 1610 |  | 

Row | Compound | 5-HT2A BRET Eff % [1] [%] | EC50 ([1]; 5-HT2A BRET EC50 (nM)) [nM] | EC50 ([2]; 5-HT2B BRET EC50 (nM)) [nM] | 5-HT2B BRET Eff % [2] [%] | EC50 [3] [nM] | 5-HT2C BRET Eff % [3] [%] | 5-HT2B BRET EC50 (nM) / Eff % [2] | EC50 ([1]; read-out: 5-HT2A BRET EC50) [nM] | EC50 ([2]; read-out: 5-HT2B BRET EC50) [nM] | 5-HT2C BRET EC50 (nM) / Eff % (merged cell, word) [3]
21 | COc1cc(C#N)ccc1CCNCc1ccccc1O [Cpd #113] | 90 | 4.9 | 1290 | 34 | 30.3 | 102 |  |  |  | 
22 | N#Cc1ccc(CCNCc2ccccc2O)cc1 [Cpd #114] | 88 |  |  | 11 | 322 | 92 |  | 154 | 6490 | 
23 | N#Cc1ccc(CCNCc2ccccc2O)c(OC(F)(F)F)c1 [Cpd #115] | 94 | 212 |  |  | 380 | 104 | Inactive |  |  | 
24 | Oc1cc(C(F)(F)F)ccc1CCNCc1ccccc1O [Cpd #116] | 89 | 1 |  |  | 1.7 | 100 | Inactive |  |  | 
25 | COc1ccc(CCNCc2ccccc2SC)c(O)c1 [Cpd #119] | 100 | 4.6 | 2540 | 108 | 114 | 119 |  |  |  | 
26 | CSc1ccccc1CNCCc1ccc(O)cc1O [Cpd #120] | 90 |  |  |  |  |  | Inactive | 518 |  | Inactive
27 | CSc1ccc(CCNCc2ccccc2SC)c(O)c1 [Cpd #121] | 94 | 3.6 | 175 | 89 | 44.1 | 110 |  |  |  | 
28 | CSc1ccccc1CNCCc1ccc(C(F)F)cc1O [Cpd #123] | 96 | 3.2 | 6720 | 95 | 30 | 120 |  |  |  | 
29 | N#Cc1ccc(CCNCc2ccccc2OC(F)(F)F)c(O)c1 [Cpd #124] | 83 |  |  | 97 | 21.1 | 98 |  | 159 | 453 | 
30 | CCCCCc1ccc(CCNCc2ccccc2O)c(OC)c1 [Cpd #125] | 96 | 13.5 |  |  | 55.8 | 105 | Inactive |  |  | 
31 | COc1cc(Cc2ccccc2)ccc1CCNCc1ccccc1O [Cpd #126] | 99 |  |  | −23 | 3.8 | 111 |  | 1.2 | 0.02 | 
32 | COc1cc(Oc2ccccc2)ccc1CCNCc1ccccc1O [Cpd #127] | 100 |  |  | −20 | 148 | 104 |  | 27.1 | 3.8 | 
33 | COc1cc(C#N)c(F)cc1CCNCc1ccccc1SC [Cpd #128] | 99 | 7.8 | 723 | 109 | 114 | 118 |  |  |  | 
34 | N#Cc1cc(O)c(CCNCc2ccccc2O)cc1F [Cpd #129] | 95 | 7.8 | 249 | 62 | 67 | 105 |  |  |  | 
35 | COc1ccccc1CNCCc1ccc(F)cc1O [Cpd #130] | 84 | 18 |  |  | 8.7 | 101 | Inactive |  |  | 
36 | Cc1ccc(CCNCc2cccc3c2OCO3)c(O)c1 [Cpd #132] | 70 | 49 |  |  | 770 | 84 | Inactive |  |  | 
37 | COc1cc(C#N)ccc1CCNCC1CC1 [Cpd #133] | 64 |  |  | −6 | 34400 | 71 |  | 10700 | 0.07 | 
38 | CSc1ccccc1CCNCCc1ccc(C#N)cc1O [Cpd #134] | 67 |  |  | 85 | 160 | 87 |  | 384 | 620 | 
39 | CSc1ccccc1CCCNCCc1ccc(C#N)cc1O [Cpd #135] | 51 |  |  | 15 | 121 | 65 |  | 423 | 502 | 
40 | CSc1ccccc1CNCCCc1ccc(C#N)cc1O [Cpd #136] | 55 |  |  | 49 | 412 | 43 |  | 1380 | 7330 | 
